Experiments:
[1] = target: KDR (phospho-KDR, VEGF165-stimulated HUVEC cells) (Homo sapiens (Human), UniProt P35968); experiment: KDR autophosphorylation ELISA in HUVEC cells (Example G); format: cell-based; conditions: cellular activity; KDR autophosphorylation ELISA in HUVEC cells
How it was run: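 IC50 values derive from nonlinear curve fitting of phospho-KDR levels measured by ELISA and interpolated from a phosphoprotein standard. Beforehand, starved HUVECs received compound (0.3% DMSO vehicle) for one hour and were activated with VEGF165 at 100 ng/mL for 5 min.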

[2] = target: Human MET (residues 956-1390) (Homo sapiens (Human), UniProt P08581); experiment: Human Met kinase assay, HTRF KinEase (Example D-2); format: biochemical; conditions: protocol of Example D-2 (other compounds); read-out: c-Met IC50
Sequence of Human MET (residues 956-1390) (P08581 956-1390): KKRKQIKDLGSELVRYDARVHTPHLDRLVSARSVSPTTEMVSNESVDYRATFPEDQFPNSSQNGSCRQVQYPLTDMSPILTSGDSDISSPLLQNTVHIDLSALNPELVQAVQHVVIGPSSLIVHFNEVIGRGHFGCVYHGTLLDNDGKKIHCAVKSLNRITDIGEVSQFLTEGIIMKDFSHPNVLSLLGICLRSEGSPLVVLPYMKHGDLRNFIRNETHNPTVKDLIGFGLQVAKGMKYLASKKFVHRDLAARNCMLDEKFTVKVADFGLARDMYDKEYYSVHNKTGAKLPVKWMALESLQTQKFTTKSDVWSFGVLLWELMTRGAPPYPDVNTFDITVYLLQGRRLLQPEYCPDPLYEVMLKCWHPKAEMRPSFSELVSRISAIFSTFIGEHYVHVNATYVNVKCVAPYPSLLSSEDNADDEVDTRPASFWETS
How it was run: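 HTRF KinEase assay on MET residues 956-1390 (0.1 ng/well) in buffer with 5 mM MgCl2, 1 mM DTT and 1 mM MnCl2, with biotinylated peptide substrate, ATP at Km, 10 compound concentrations and 3% DMSO final, run 40 min at room temperature. The […] signal was normalized to DMSO and to 1 μM reference compound, and IC50 came from a 4-parameter logistic fit.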

Sequence of KDR (phospho-KDR, VEGF165-stimulated HUVEC cells) (P35968 20-1356): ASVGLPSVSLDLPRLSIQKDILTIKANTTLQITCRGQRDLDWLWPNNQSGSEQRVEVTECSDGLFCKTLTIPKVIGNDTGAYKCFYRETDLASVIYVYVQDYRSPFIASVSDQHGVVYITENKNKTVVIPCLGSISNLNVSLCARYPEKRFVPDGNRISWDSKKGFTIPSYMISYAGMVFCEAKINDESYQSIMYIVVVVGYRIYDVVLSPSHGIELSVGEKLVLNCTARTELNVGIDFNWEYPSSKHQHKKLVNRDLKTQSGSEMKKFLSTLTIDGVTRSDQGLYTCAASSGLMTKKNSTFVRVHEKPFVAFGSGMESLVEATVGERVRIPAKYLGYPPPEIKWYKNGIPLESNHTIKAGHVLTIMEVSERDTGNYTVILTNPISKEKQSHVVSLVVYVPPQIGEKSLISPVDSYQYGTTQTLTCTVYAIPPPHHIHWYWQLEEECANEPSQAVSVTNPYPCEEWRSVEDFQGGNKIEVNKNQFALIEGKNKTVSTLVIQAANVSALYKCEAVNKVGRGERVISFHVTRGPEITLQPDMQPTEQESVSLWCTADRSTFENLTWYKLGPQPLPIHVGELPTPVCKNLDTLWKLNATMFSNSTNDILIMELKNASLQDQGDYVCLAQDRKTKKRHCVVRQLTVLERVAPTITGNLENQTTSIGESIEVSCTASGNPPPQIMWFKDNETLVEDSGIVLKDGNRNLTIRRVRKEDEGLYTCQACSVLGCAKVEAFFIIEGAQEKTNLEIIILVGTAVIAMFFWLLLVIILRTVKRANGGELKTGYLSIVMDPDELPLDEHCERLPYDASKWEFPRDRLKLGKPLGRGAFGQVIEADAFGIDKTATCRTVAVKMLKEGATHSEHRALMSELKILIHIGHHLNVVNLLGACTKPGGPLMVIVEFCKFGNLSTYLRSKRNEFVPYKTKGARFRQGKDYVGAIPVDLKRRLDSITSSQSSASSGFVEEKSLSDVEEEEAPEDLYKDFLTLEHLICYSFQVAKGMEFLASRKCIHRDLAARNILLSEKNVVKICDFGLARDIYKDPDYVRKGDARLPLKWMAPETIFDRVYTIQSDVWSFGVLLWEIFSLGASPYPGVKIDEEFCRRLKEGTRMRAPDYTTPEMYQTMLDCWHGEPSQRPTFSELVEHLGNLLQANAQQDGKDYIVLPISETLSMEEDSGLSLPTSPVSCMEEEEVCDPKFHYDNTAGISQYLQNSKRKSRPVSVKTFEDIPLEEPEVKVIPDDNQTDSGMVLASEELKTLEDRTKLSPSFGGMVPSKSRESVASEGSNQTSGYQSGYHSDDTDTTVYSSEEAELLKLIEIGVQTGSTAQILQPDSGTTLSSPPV

| SMILES | IC50 [1] | IC50 [2] |
| --- | --- | --- |
| COc1ccc2nccc(Oc3ccc(NC(=O)c4cn(C(C)C)c(C)c(-c5ccc(F)cc5)c4=O)cc3)c2n1 [Compound 341, 5-(4-fluorophenyl)-N-[4-[(6-methoxy-1,5-naphthyridin-4-yl)oxy]phenyl]-6-methyl-4-oxo-1-propan-2-ylpyridine-3-carboxamide] | > 0.3 µM | < 0.1 µM |
| Cc1ccc(C(=O)Nc2ccc(Oc3ccnc4ccc(OCCN5CCOCC5)nc34)c(F)c2)c(=O)n1-c1ccc(F)cc1 [Compound 351, N-[3-fluoro-4-[[6-(2-morpholin-4-ylethoxy)-1,5-naphthyridin-4-yl]oxy]phenyl]-1-(4-fluorophenyl)-6-methyl-2-oxopyridine-3-carboxamide] | < 0.1 µM | < 0.1 µM |
| Cc1ncc(C(=O)Nc2ccc(Oc3ccnc4ccc(OCCN5CCOCC5)nc34)c(F)c2)c(O)c1-c1ccc(F)cc1 [Compound 352, N-[3-fluoro-4-[[6-(2-morpholin-4-ylethoxy)-1,5-naphthyridin-4 yl]oxy]phenyl]-5-(4-fluorophenyl)-4-hydroxy-6-methylpyridine-3-carboxamide] | < 0.1 µM | < 0.1 µM |
| Cc1ccc(C(=O)Nc2ccc(Oc3ccnc4ccc(OCCN(C)C)nc34)c(F)c2)c(=O)n1-c1ccc(F)cc1 [Compound 353, N-[4-[[6-[2-(dimethylamino)ethoxy]-1,5-naphthyridin-4-yl]oxy]-3-fluorophenyl]-1-(4-fluorophenyl)-6-methyl-2-oxopyridine-3-carboxamide] | < 0.1 µM | < 0.1 µM |
| Cc1nc(C)c(-c2ccc(F)cc2)c(O)c1C(=O)Nc1ccc(Oc2ccnc3ccc(OCCN(C)C)nc23)c(F)c1 [Compound 354, N-[4-[[6-[2-(dimethylamino)ethoxy]-1,5-naphthyridin-4-yl]oxy]-3-fluorophenyl]-5-(4-fluorophenyl)-4-hydroxy-2,6-dimethylpyridine-3-carboxamide] | < 0.1 µM | < 0.1 µM |
| Cc1nc(C)c(-c2ccc(F)cc2)c(O)c1C(=O)Nc1ccc(Oc2ccnc3ccc(OCCN4CCOCC4)nc23)c(F)c1 [Compound 355, N-[3-fluoro-4-[[6-(2-morpholin-4-ylethoxy)-1,5-naphthyridin-4-yl)oxy]phenyl]-5-(4-fluorophenyl)-4-hydroxy-2,6-dimethylpyridine-3-carboxamide] | < 0.1 µM | < 0.1 µM |
| COc1ccc2nccc(Oc3ccc(NC(=O)c4cn(C)c(C)c(-c5ccc(F)cc5)c4=O)cc3)c2n1 [Compound 356, 5-(4-fluorophenyl)-N-[4-[(6-methoxy-1,5-naphthyridin-4-yl)oxy]phenyl]-1,6-dimethyl-4-oxopyridine-3-carboxamide] | > 0.3 µM | 0.1 to 0.3 µM |
| COc1cc2nccc(Oc3ccc(NC(=O)c4nn(C(C)C)c(C)c(-c5ccc(F)cc5)c4=O)cc3F)c2nc1OC [Compound 364, N-[4-[(6,7-dimethoxy-1,5-naphthyridin-4-yl)oxy]-3-fluorophenyl]-5-(4-fluorophenyl)-6-methyl-4-oxo-1-propan-2-ylpyridazine-3-carboxamide] | < 0.1 µM | < 0.1 µM |
| C=C(C)c1cc(C(=O)Nc2ccc(Oc3ccnc4cc(OC)c(OC)nc34)c(F)c2)c(=O)n(-c2ccc(F)cc2)c1C [Compound 367, N-[4-[(6,7-dimethoxy-1,5-naphthyridin-4-yl)oxy]-3-fluorophenyl]-1-(4-fluorophenyl)-6-methyl-2-oxo-5-prop-1-en-2-ylpyridine-3-carboxamide] | 0.1 to 0.3 µM | 0.1 to 0.3 µM |
| COc1cc2nccc(Oc3ccc(NC(=O)c4cc(C(C)C)c(C)n(-c5ccc(F)cc5)c4=O)cc3F)c2nc1OC [Compound 368, N-[4-[(6,7-dimethoxy-1,5-naphthyridin-4-yl)oxy]-3-fluorophenyl]-1-(4-fluorophenyl)-6-methyl-2-oxo-5-propan-2-ylpyridine-3-carboxamide] | < 0.1 µM | < 0.1 µM |
| CCOc1c(C(=O)Nc2ccc(Oc3ccnc4cc(OC)c(OC)nc34)c(F)c2)c(=O)c(-c2ccc(F)cc2)c(C)n1C [Compound 369, N-[4-[(6,7-dimethoxy-1,5-naphthyridin-4-yl)oxy]-3-fluorophenyl]-2-ethoxy-5-(4-fluorophenyl)-1,6-dimethyl-4-oxopyridine-3-carboxamide] | < 0.1 µM | > 0.3 µM |
| COc1cc2nccc(Oc3ccc(NC(=O)c4cc(C)c(C)n(-c5ccc(F)cc5)c4=O)cc3F)c2nc1OC [Compound 370, N-[4-[(6,7-dimethoxy-1,5-naphthyridin-4-yl)oxy]-3-fluorophenyl]-1-(4-fluorophenyl)-5,6-dimethyl-2-oxopyridine-3-carboxamide] | < 0.1 µM | < 0.1 µM |

Further lines, results first:

| IC50 [1] | IC50 [2] | SMILES |
| --- | --- | --- |
| < 0.1 µM | < 0.1 µM | Cc1cc(C)n(-c2ccc(F)cc2)c(=O)c1C(=O)Nc1ccc(Oc2ccnc3cccnc23)c(F)c1 [Compound 295, N-[3-Fluoro-4-(1,5-naphthyridin-4-yloxy)phenyl]-1-(4-fluorophenyl)-4,6-dimethyl-2-oxopyridine-3-carboxamide] |
| < 0.1 µM | 0.1 to 0.3 µM | COc1ccc2nccc(Oc3ccc(NC(=O)c4c(C)cc(C)n(-c5ccc(F)cc5C)c4=O)cc3F)c2n1 [Compound 296, N-[3-Fluoro-4-[(6-methoxy-1,5-naphthyridin-4-yl)oxy]phenyl]-1-(4-fluoro-2-methylphenyl)-4,6-dimethyl-2-oxopyridine-3-carboxamide] |
| < 0.1 µM | < 0.1 µM | Cc1ccc2nccc(Oc3ccc(NC(=O)c4c(C)cc(C)n(-c5ccc(F)cc5)c4=O)cc3F)c2n1 [Compound 297, N-[3-Fluoro-4-[(6-methyl-1,5-naphthyridin-4-yl)oxy]phenyl]-1-(4-fluorophenyl)-4,6-dimethyl-2-oxopyridine-3-carboxamide] |
| < 0.1 µM | 0.1 to 0.3 µM | COc1cc2nccc(Oc3ccc(NC(=O)c4c(C)cc(C)n(-c5ccc(F)cc5C)c4=O)cc3F)c2nc1OC [Compound 298, N-[4-[(6,7-Dimethoxy-1,5-naphthyridin-4-yl)oxy]-3-fluorophenyl]-1-(4-fluoro-2-methylphenyl)-4,6-dimethyl-2-oxopyridine-3-carboxamide] |
| < 0.1 µM | < 0.1 µM | COc1cc2nccc(Oc3ccc(NC(=O)c4c(C)ccn(-c5ccc(F)cc5)c4=O)cc3)c2nc1OC [Compound 299, N-[4-[(6,7-Dimethoxy-1,5-naphthyridin-4-yl)oxy]phenyl]-1-(4-fluorophenyl)-4-methyl-2-oxopyridine-3-carboxamide] |
| < 0.1 µM | 0.1 to 0.3 µM | COc1cnc2c(Oc3ccc(NC(=O)c4c(C)ccn(-c5ccc(F)cc5)c4=O)cc3)ccnc2c1 [Compound 300, 1-(4-Fluorophenyl)-N-[4-[(7-methoxy-1,5-naphthyridin-4-yl)oxy]phenyl]-4-methyl-2-oxopyridine-3-carboxamide] |
| < 0.1 µM | < 0.1 µM | COCc1ncc(C(=O)Nc2ccc(Oc3ccnc4cc(OC)c(OC)nc34)c(F)c2)c(O)c1-c1ccc(F)cc1 [Compound 301, N-[4-[(6,7-Dimethoxy-1,5-naphthyridin-4-yl)oxy]-3-fluorophenyl]-5-(4-fluorophenyl)-4-hydroxy-6-(methoxymethyl)pyridine-3-carboxamide] |
| < 0.1 µM | < 0.1 µM | COc1ccc2nccc(Oc3ccc(NC(=O)c4c(C)nc(C)c(-c5ccc(F)cc5)c4O)cc3)c2n1 [Compound 340, 5-(4-fluorophenyl)-4-hydroxy-N-[4-[(6-methoxy-1,5-naphthyridin-4-yl)oxy]phenyl]-2,6-dimethylpyridine-3-carboxamide] |
| < 0.1 µM | < 0.1 µM | COc1ccc2nccc(Oc3ccc(NC(=O)c4cnc(C)c(-c5ccc(F)cc5)c4O)cc3)c2n1 [Compound 342, 5-(4-fluorophenyl)-4-hydroxy-N-[4-[(6-methoxy-1,5-naphthyridin-4-yl)oxy]phenyl]-6-methylpyridine-3-carboxamide] |
| < 0.1 µM | < 0.1 µM | COc1ccc2nccc(Oc3ccc(NC(=O)c4ccc(C)n(-c5ccc(F)cc5)c4=O)cc3)c2n1 [Compound 343, 1-(4-fluorophenyl)-N-[4-[(6-methoxy-1,5-naphthyridin-4-yl)oxy]phenyl]-6-methyl-2-oxopyridine-3-carboxamide] |
| < 0.1 µM | < 0.1 µM | COc1ccc2nccc(Oc3ccc(NC(=O)c4c(C)nc(C)c(-c5ccc(F)cc5)c4O)cc3F)c2c1 [Compound 345, N-[3-fluoro-4-(6-methoxyquinolin-4-yl)oxyphenyl]-5-(4-fluorophenyl)-4-hydroxy-2,6-dimethylpyridine-3-carboxamide] |
| < 0.1 µM | < 0.1 µM | COc1ccc2nccc(Oc3ccc(NC(=O)c4ccc(C)n(-c5ccc(F)cc5)c4=O)cc3F)c2c1 [Compound 346, N-[3-fluoro-4-(6-methoxyquinolin-4-yl)oxyphenyl]-1-(4-fluorophenyl)-6-methyl-2-oxopyridine-3-carboxamide] |
| < 0.1 µM | < 0.1 µM | COc1ccc2nccc(Oc3ccc(NC(=O)c4cnc(C)c(-c5ccc(F)cc5)c4O)cc3F)c2c1 [Compound 347, N-[3-fluoro-4-(6-methoxyquinolin-4-yl)oxyphenyl]-5-(4-fluorophenyl)-4-hydroxy-6-methylpyridine-3-carboxamide] |
| < 0.1 µM | < 0.1 µM | COCCOc1ccc2nccc(Oc3ccc(NC(=O)c4ccc(C)n(-c5ccc(F)cc5)c4=O)cc3F)c2n1 [Compound 350, N-[3-fluoro-4-[[6-(2-methoxyethoxy)-1,5-naphthyridin-4-yl]oxy]phenyl]-1-(4-fluorophenyl)-6-methyl-2-oxopyridine-3-carboxamide] |
